Reference: patent US20200216454A1, “BIFUNCTIONAL MOLECULES FOR HER3 DEGRADATION AND METHODS OF USE” (Dana-Farber Cancer Institute, Inc., priority 2016, published 2020)

Assays:
Her3 [1] = target: T1, Her3 (Homo sapiens, UniProt P21860); assay: Her3 protein degradation by Western blot; assay type: cell-based; parameters: endogenous in cells; host or cells: PC9-GR4; Ovacar 8; key: (+): Her3 protein was degraded; (−): Her3 protein was not degraded; conditions: PC9-GR4 or Ovacar 8 cell lines, 2 μM, 4 hour and 8 hour
Description: Cells are seeded at the desired density the day before treatment starts with bifunctional compounds of the application at various concentration. After 4 to 12 hrs, cells are washed with buffer and lysed. The lysates are centrifuged and the supernatant is collected. Protein concentrations are measured using a protein assay kit, such as the BCA protein assay kit, Pierce, catalog number 23225) and normalized. Samples are run on a SDS-PAGE gel, and transferred to a PVDF membrane. The PVDF membrane is probed with the appropriate antibody.
Her3 protein degradation was assessed by Western blots after treatment of PC9-GR4 cell lines or Ovacar 8 cell lines with 2 μM of representative compounds for 4 hour and 8 hour.
Cells were seeded at a density of […] per 6 cm plate the day before treatment started with representative compounds of the application at the indicated concentration. After 4 to 12 hours, cells were washed with phosphate-buffered saline. Lysis buffer included 50 mM Tris-HCl, 150 mM NaCl, 1% NP-40, and 5 mM EDTA, pH 7.4+/−0.2, Roche PhosSTOP phosphatase inhibitor cocktail tablets and Roche Complete Protease inhibitor cocktail tablets. Cell lysis was accomplished by the addition of lysis buffer for 5-10 minutes on ice. Lysates were centrifuged in a microcentrifuge at 14,000 r.p.m. for 15 minutes at 4° C. and the supernatant was collected. Protein concentrations were measured using BCA protein assay kit (Pierce, catalog number 23225) and normalized. Samples were run on a 4%-12% SDS-PAGE gel at 120 V. After transfer, the PVDF membrane was probed with anti-Her3 antibody, Santa Cruz, catalog number sc-285 at 1:1000 dilution.
Target sequence in this assay (P21860 20-1342): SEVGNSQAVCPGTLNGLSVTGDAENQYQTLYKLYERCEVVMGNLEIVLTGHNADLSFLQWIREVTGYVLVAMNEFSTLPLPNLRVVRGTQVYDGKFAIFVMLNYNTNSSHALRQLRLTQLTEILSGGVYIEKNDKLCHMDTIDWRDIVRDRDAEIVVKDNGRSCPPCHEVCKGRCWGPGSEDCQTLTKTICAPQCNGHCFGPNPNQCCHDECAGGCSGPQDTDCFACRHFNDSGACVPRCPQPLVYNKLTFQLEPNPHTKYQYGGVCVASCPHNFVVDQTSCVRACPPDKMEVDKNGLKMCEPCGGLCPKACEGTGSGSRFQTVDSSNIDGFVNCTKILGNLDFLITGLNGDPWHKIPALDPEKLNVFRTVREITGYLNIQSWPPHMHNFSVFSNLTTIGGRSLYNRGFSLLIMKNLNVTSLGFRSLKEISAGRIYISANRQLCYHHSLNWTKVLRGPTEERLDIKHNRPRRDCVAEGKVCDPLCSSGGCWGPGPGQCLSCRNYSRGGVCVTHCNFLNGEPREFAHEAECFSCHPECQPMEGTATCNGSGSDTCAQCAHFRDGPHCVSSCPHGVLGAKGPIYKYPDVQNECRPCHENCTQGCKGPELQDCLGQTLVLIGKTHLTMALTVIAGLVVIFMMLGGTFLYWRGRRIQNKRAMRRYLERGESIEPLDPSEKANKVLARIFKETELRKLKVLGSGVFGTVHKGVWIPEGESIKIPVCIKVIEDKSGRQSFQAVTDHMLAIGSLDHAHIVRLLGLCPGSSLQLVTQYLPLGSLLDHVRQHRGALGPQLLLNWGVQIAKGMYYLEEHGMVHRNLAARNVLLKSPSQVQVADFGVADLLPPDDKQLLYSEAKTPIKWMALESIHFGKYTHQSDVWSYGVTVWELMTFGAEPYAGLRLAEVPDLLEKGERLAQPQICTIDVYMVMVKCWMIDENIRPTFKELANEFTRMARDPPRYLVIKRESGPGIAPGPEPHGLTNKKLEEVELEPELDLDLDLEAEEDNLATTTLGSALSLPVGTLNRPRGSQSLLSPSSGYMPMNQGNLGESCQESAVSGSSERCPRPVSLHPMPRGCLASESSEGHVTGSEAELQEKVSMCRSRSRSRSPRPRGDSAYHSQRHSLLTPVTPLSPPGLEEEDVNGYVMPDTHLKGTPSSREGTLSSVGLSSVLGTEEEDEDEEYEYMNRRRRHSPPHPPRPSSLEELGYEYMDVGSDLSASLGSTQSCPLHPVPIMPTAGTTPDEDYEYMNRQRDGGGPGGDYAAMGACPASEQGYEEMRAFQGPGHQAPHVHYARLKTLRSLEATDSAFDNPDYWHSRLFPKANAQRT

PC9-GR4 = assay: Anti-proliferation MTS assay, PC9-GR4; assay type: cell-based; conditions: 72 h, PC9-GR4 cells, 3 days, read-out: Cell lines (EC50, μM) PC9-GR4
Description: (§1) Cells are seeded and incubated for 3 d after bifunctional compounds of the application are added. Cell viability is measured via MTS Assay. This assay uses a colorimetric method to determine the number of viable cells based on the bioreduction of MTS by cells to a formazan product that is soluble in cell culture medium and can be detected spectrophotometrically. In a typical experiment, the supernatant is removed and replaced by 100 μl of RPMI media supplemented with MTS reagent and PMS. The plates are measured with Perkin Elmer EnVision after reaching an optical density (OD) of 1.0-2.0 at a wavelength of 490 nm. The cell numbers are normalized compared to DMSO control, and the EC50 values are calculated using GraphPad Prism.
(§2) Five cell lines, PC9-GR4, 826-GR6, Ovacar 8, A549, and Ovacar 5 were grown and treated with representative compounds Viability of the cells after the treatment was assessed by MTS assay.
(§3) The anti-proliferation assay was carried out using 96-well clear bottom plates. […] Cell viability was measured via MTS Assay. This assay uses a colorimetric method to determine the number of viable cells based on the bioreduction of MTS by cells to a formazan product that is soluble in cell culture medium and can be detected spectrophotometrically. […] The plates were measured with Perkin Elmer EnVision after reaching an optical density (OD) of 1.0-2.0 at a wavelength of 490 nm. […]

826-GR6 = assay: Anti-proliferation MTS assay, 826-GR6; assay type: cell-based; conditions: 72 h, 826-GR6 cells, 3 days, read-out: Cell lines (EC50, μM) 826-GR6
Description: as §1, §2, §3

Ovacar 8 = assay: Anti-proliferation MTS assay, Ovacar 8; assay type: cell-based; conditions: 72 h, Ovacar 8 cells, 3 days, read-out: Cell lines (EC50, μM) Ovacar 8
Description: as §1, §2, §3

A549 = assay: Anti-proliferation MTS assay, A549; assay type: cell-based; conditions: Homo sapiens, 72 h, A549 cells, 3 days, read-out: Cell lines (EC50, μM) A549
Description: as §1, §2, §3

Ovacar 5 = assay: Anti-proliferation MTS assay, Ovacar 5; assay type: cell-based; conditions: 72 h, Ovacar 5 cells, 3 days, read-out: Cell lines (EC50, μM) Ovacar 5
Description: as §1, §2, §3

Her3 [2] = target: T1, Her3; assay: LanthaScreen Eu kinase binding assay; parameters: purchased Life Technologies; conditions: read-out: Binding Affinities (IC50)
Description: Lantha screening is performed by following the method reported in Nature Chemical Biology, 10, 1006-1012 (2014).
Binding affinities (IC50) of representative compounds were measured by the Life Technologies LanthaScreen Eu kinase binding assay, which was previously described (Xie T. et al., Nat. Chem. Biol. 2014, 10, 1006-1012).
Lantha screening was performed by following the method reported in Nature Chemical Biology, 10, 1006-1012 (2014).
Target sequence in this assay (P21860 20-1342, species assumed): as the sequence (P21860 20-1342) above

Row | SMILES | Her3 Degradation (Her3 [1]) | IC50 (Her3 [2]) | also measured
1 | C=CC(=O)Nc1cc(-c2nn(C3CCN(CCOCCOCCOCCC(=O)N[C@@H](C(=O)N4C[C@@H](O)C[C@@H]4C(=O)NCc4ccc(-c5scnc5C)cc4)C(C)(C)C)CC3)c3ncnc(N)c23)ccc1Oc1ccccc1 [Compound PP1] | − |  | 
2 | C=CC(=O)Nc1cc(-c2nn(C3CCN(CC(=O)N[C@@H](C(=O)N4C[C@@H](O)C[C@@H]4C(=O)NCc4ccc(-c5scnc5C)cc4)C(C)(C)C)CC3)c3ncnc(N)c23)ccc1Oc1ccccc1 [Compound PP2] | + |  | EC50 (PC9-GR4): 5 to 15 µM; EC50 (826-GR6): 5 to 15 µM; EC50 (Ovacar 8): < 5 µM; EC50 (A549): 5 to 15 µM; EC50 (Ovacar 5): 5 to 15 µM
3 | C=CC(=O)Nc1cc(-c2nn(C3CCN(CC(=O)NCCCCNC(=O)COc4cccc5c4C(=O)N(C4CCC(=O)NC4=O)C5=O)CC3)c3ncnc(N)c23)ccc1Oc1ccccc1 (stereo not drawn) [Compound PP3] | + |  | 
4 | C=CC(=O)Nc1cc(-c2nn(C3CCN(CC(=O)NCCCCCCCCNC(=O)COc4cccc5c4C(=O)N(C4CCC(=O)NC4=O)C5=O)CC3)c3ncnc(N)c23)ccc1Oc1ccccc1 (stereo not drawn) [Compound PP4] | + |  | EC50 (Ovacar 8): 5 to 15 µM
5 | C=CC(=O)Nc1cc(-c2nn(C3CCN(CC(=O)NCCCOCCOCCOCCCNC(=O)COc4cccc5c4C(=O)N(C4CCC(=O)NC4=O)C5=O)CC3)c3ncnc(N)c23)ccc1Oc1ccccc1 (stereo not drawn) [Compound PP5] | − |  | 
6 | Nc1ncnc2c1c(-c1ccc(Oc3ccccc3)c([N+](=O)[O-])c1)nn2C1CCN(CC(=O)NCCOCCOCCOCCNC(=O)COc2cccc3c2C(=O)N(C2CCC(=O)NC2=O)C3=O)CC1 (stereo not drawn) [Compound PP6] | − | 0.01 to 0.1 µM | 
7 | Nc1ncnc2c1c(-c1ccc(Oc3ccccc3)c([N+](=O)[O-])c1)nn2C1CCN(CC(=O)NCCCCNC(=O)COc2cccc3c2C(=O)N(C2CCC(=O)NC2=O)C3=O)CC1 (stereo not drawn) [Compound PP7] | − | 0.01 to 0.1 µM | 
8 | Cc1ncsc1-c1ccc(CNC(=O)[C@@H]2C[C@@H](O)CN2C(=O)[C@@H](NC(=O)CCOCCOCCOCCN2CCC(n3nc(-c4ccc(Oc5ccccc5)c([N+](=O)[O-])c4)c4c(N)ncnc43)CC2)C(C)(C)C)cc1 [Compound PP8] | + | > 0.1 µM | EC50 (PC9-GR4): > 15 µM
